These results are taken from the NIST ThermoML archive (doi:10.1016/j.jct.2019.05.023).

The conditions of data set [1]: 101.3 kPa, Liquid; for speed of sound: Frequency=3 MHz, Single path-length method; for mass density: Vibrating tube method.
Data set [2] can be described thus: xn = mol fraction of the nth substance listed. Particulars: 101.3 kPa, Liquid, x1 = 1; for speed of sound: Frequency=3 MHz, Single path-length method; for mass density: Vibrating tube method.

± gives the expanded uncertainty stated by the source.

As for `CCOCCO` [2-ethoxyethan-1-ol], the speed of sound (as a rule, how fast a sound wave travels through the sample) in data set [1] (298.15 K) is 1304 ± 10 m/s; in data set [1] (303.15 K) it was 1287 ± 10 m/s; in data set [1] (308.15 K), 1270 ± 10 m/s; in data set [1] (313.15 K), 1252 ± 10 m/s; in data set [1] (318.15 K), 1234 ± 10 m/s. Also, the mass density – broadly, mass per unit of volume – came out at 926 ± 2 kg/m3 in data set [1] (298.15 K); 921 ± 2 kg/m3 in data set [1] (303.15 K); 917 ± 2 kg/m3 in data set [1] (308.15 K); 912 ± 2 kg/m3 in data set [1] (313.15 K); 907 ± 2 kg/m3 in data set [1] (318.15 K).
For `CCn1cc[n+](C)c1.O=S(=O)([O-])C(F)(F)F` [1-ethyl-3-methylimidazolium trifluoromethanesulfonate], the speed of sound came out at 1436 ± 10 m/s in data set [1] (298.15 K); 1425 ± 10 m/s in data set [1] (303.15 K); 1413 ± 10 m/s in data set [1] (308.15 K); 1402 ± 10 m/s in data set [1] (313.15 K); 1391 ± 10 m/s in data set [1] (318.15 K). Besides, the mass density is listed as 1383 ± 2 kg/m3 in data set [1] (298.15 K); 1379 ± 2 kg/m3 in data set [1] (303.15 K); 1374 ± 2 kg/m3 in data set [1] (308.15 K); 1370 ± 2 kg/m3 in data set [1] (313.15 K); 1366 ± 2 kg/m3 in data set [1] (318.15 K).
For the compound `CCCOCCO` [2-propoxyethanol], the speed of sound in data set [1] (298.15 K) is 1301 ± 10 m/s; in data set [1] (303.15 K), 1283 ± 10 m/s; in data set [1] (308.15 K), 1266 ± 10 m/s; in data set [1] (313.15 K), 1248 ± 10 m/s; in data set [1] (318.15 K), 1231 ± 10 m/s. Further, the mass density in data set [1] (298.15 K) is 908 ± 2 kg/m3; in data set [1] (303.15 K) it was 903 ± 2 kg/m3; in data set [1] (308.15 K), 899 ± 2 kg/m3; in data set [1] (313.15 K), 895 ± 2 kg/m3; in data set [1] (318.15 K), 890 ± 2 kg/m3.
As for `CCn1cc[n+](C)c1.O=S(=O)([O-])C(F)(F)F` [1-ethyl-3-methylimidazolium trifluoromethanesulfonate] + CCOCCO, the speed of sound in data set [2] (298.15 K) is listed as 1436 ± 10 m/s; in data set [2] (303.15 K), 1425 ± 10 m/s; in data set [2] (308.15 K), 1413 ± 10 m/s; in data set [2] (313.15 K), 1402 ± 10 m/s; in data set [2] (318.15 K), 1391 ± 10 m/s. For the same compound, the mass density in data set [2] (298.15 K) was 1383 ± 2 kg/m3; in data set [2] (303.15 K), 1379 ± 2 kg/m3; in data set [2] (308.15 K), 1374 ± 2 kg/m3; in data set [2] (313.15 K) it was 1370 ± 2 kg/m3; in data set [2] (318.15 K), 1366 ± 2 kg/m3.
For `CCn1cc[n+](C)c1.O=S(=O)([O-])C(F)(F)F` [1-ethyl-3-methylimidazolium trifluoromethanesulfonate] + CCCOCCO, the speed of sound in data set [2] (298.15 K) was found to be 1436 ± 10 m/s; in data set [2] (303.15 K), 1425 ± 10 m/s; in data set [2] (308.15 K), 1413 ± 10 m/s; in data set [2] (313.15 K), 1402 ± 10 m/s; in data set [2] (318.15 K), 1391 ± 10 m/s. Moreover, the mass density in data set [2] (298.15 K) is on record as 1383 ± 2 kg/m3; in data set [2] (303.15 K), 1379 ± 2 kg/m3; in data set [2] (308.15 K), 1374 ± 2 kg/m3; in data set [2] (313.15 K), 1370 ± 2 kg/m3; in data set [2] (318.15 K), 1366 ± 2 kg/m3.
